# Experimental data as given in patent publication US10131744B2, “Antimicrobial polyamide compositions and mastitis treatment” (priority 2013, dated 2018).
# Like-named read-outs stand apart in the source and are kept apart here.
# Assays:
# [1] = system: E. faecalis (Str-15) ATCC 29212; assay: MIC in broth against E. faecalis; type: cell-based; details: Enterococcus faecalis, ATCC29212
# Description: (§1) The antimicrobial efficacy of twenty-five antimicrobial polymers (and Erythromycin) was evaluated using an MIC assay. […] Overall, the antimicrobial polymer-containing compositions performed comparably well, or better, against the pathogens, as compared to Erythromycin (ERY).
# [2] = system: S. pneumoniae (Str-53) ATCC 49619; assay: MIC in broth against S. pneumoniae; type: cell-based; details: Streptococcus pneumoniae, ATCC49619
# Description: as §1
# [3] = system: Actinobacillus pleuropneumoniae; assay: MIC in broth against Actinobacillus pleuropneumoniae; type: cell-based
# Description: (§2) The antimicrobial efficacy of twenty-five antimicrobial polymers (and Erythromycin) was evaluated using an MIC assay. For each study, a doubling dilution concentration of each antimicrobial polymer was prepared at 2× the final concentration range (0.12 to 16 μg/mL), and 100 μL of the API-null formulation was dispensed into the negative control wells. Overall, the antimicrobial polymer-containing compositions performed comparably well, or better, against the pathogens, as compared to Erythromycin (ERY).
# [4] = system: Bordetella bronchiseptica; assay: MIC in broth against Bordetella bronchiseptica; type: cell-based
# Description: as §2
# [5] = system: Klebsiella species; assay: MIC in broth against Klebsiella species; type: cell-based
# Description: as §2
# [6] = system: Pasteurella multocida (Canine and BRD); assay: MIC in broth against Pasteurella multocida; type: cell-based
# Description: as §2
# [7] = system: Pseudomonas aeruginosa; assay: MIC in broth against Pseudomonas aeruginosa; type: cell-based; design: unit not given beside the values
# Description: as §2
# [8] = system: Staphylococcus pseudintermedius (including MRSP); assay: MIC in broth against Staphylococcus pseudintermedius (including MRSP); type: cell-based; design: unit not given beside the values
# Description: as §2
# [9] = system: Serratia marcescens; assay: MIC in broth against Serratia marcescens; type: cell-based; design: unit not given beside the values
# Description: as §2
# [10] = system: Streptococcus canis; assay: MIC in broth against Streptococcus canis; type: cell-based; design: unit not given beside the values
# Description: as §2
# [11] = system: Coagulase negative Staphylococcus species; assay: MIC in broth against coagulase negative Staphylococcus species; type: cell-based
# Description: as §2
# [12] = system: Staphylococcus aureus (including MRSA); details: S. aureus (Sta-3) ATCC 29213; cited from earlier work
# [13] = system: E. faecalis (Str-15) ATCC 29212; details: cited from earlier work
# [14] = system: S. pneumoniae (Str-53) ATCC 49619; details: cited from earlier work
compound,measurement,setting,value
"CC[C@H]1OC(=O)[C@H](C)[C@@H](O[C@H]2C[C@@](C)(OC)[C@@H](O)[C@H](C)O2)[C@H](C)[C@@H](O[C@@H]2O[C@H](C)C[C@H](N(C)C)[C@H]2O)[C@](C)(O)C[C@@H](C)C(=O)[C@H](C)[C@@H](O)[C@]1(C)O [Ery, Erythromycin]",MIC,[1],2 µg/mL
same,MIC,[2],0.06 µg/mL
same,MIC,"[3]; A. pleuro. (AC-1) ATTC 27090, read-out: MIC",8 µg/mL
same,MIC,"[3]; isolate # 237 (porcine lung, SRD), read-out: MIC against Actinobacillus pleuropneumoniae",2 µg/mL
same,MIC,"[3]; isolates # 228-231, 235 (porcine lung, SRD), read-out: MIC against Actinobacillus pleuropneumoniae",4 µg/mL
same,MIC,"[3]; isolates # 232-236 (porcine lung, SRD), read-out: MIC against Actinobacillus pleuropneumoniae",8 µg/mL
same,MIC,[4]; isolate # 78 (canine/feline),8 µg/mL
same,MIC,[4]; isolate # 79 (canine/feline),8 µg/mL
same,MIC,[4]; isolate # 80 (canine/feline),2 µg/mL
same,MIC,[4]; isolate # 81 (canine/feline),8 µg/mL
same,MIC,[4]; isolate # 82 (canine/feline),2 µg/mL
same,MIC,[4]; isolate # 83 (canine/feline),8 µg/mL
same,MIC,[4]; isolate # 84 (canine/feline),8 µg/mL
same,MIC,[4]; isolate # 85 (canine/feline),> 8 µg/mL
same,MIC,[4]; isolate # 86 (canine/feline),> 8 µg/mL
same,MIC,[4]; isolate # 87 (canine/feline),8 µg/mL
same,MIC,"[5]; Klebsiella, isolate # 28",> 8 µg/mL
same,MIC against Klebsiella species,[5]; isolate # 29,>8 µg/mL
same,MIC against Klebsiella species,[5]; isolate # 30,>8 µg/mL
same,MIC against Klebsiella species,[5]; isolate # 31,>8 µg/mL
same,MIC against Klebsiella species,[5]; isolate # 32,>8 µg/mL
same,MIC against Klebsiella species,[5]; isolate # 33,>8 µg/mL
same,MIC against Klebsiella species,[5]; isolate # 34,>8 µg/mL
same,MIC against Klebsiella species,[5]; isolate # 35,>8 µg/mL
same,MIC against Klebsiella species,[5]; isolate # 36,>8 µg/mL
same,MIC against Klebsiella species,[5]; isolate # 37,>8 µg/mL
same,MIC against Klebsiella species,[5]; isolate # 38,>8 µg/mL
same,MIC against Klebsiella species,[5]; isolate # 39,>8 µg/mL
same,MIC against Klebsiella species,[5]; isolate # 40,>8 µg/mL
same,MIC against Klebsiella species,[5]; isolate # 41,>8 µg/mL
same,MIC against Klebsiella species,[5]; isolate # 42,>8 µg/mL
same,MIC against Klebsiella species,[5]; isolate # 43,>8 µg/mL
same,MIC against Klebsiella species,[5]; isolate # 44,>8 µg/mL
same,MIC against Klebsiella species,[5]; isolate # 45,>8 µg/mL
same,MIC against Klebsiella species,[5]; isolate # 46,>8 µg/mL
same,MIC against Klebsiella species,[5]; isolate # 47,>8 µg/mL
same,MIC against Pasteurella multocida,[6]; strain # 168,0.5
same,MIC against Pasteurella multocida,[6]; strain # 169,1
same,MIC against Pasteurella multocida,[6]; strain # 170,1
same,MIC against Pasteurella multocida,[6]; strain # 171,0.5
same,MIC against Pasteurella multocida,[6]; strain # 172,1
same,MIC against Pasteurella multocida,[6]; strain # 173,2
same,MIC against Pasteurella multocida,[6]; strain # 174,8
same,MIC against Pasteurella multocida,[6]; strain # 175,1
same,MIC against Pasteurella multocida,[6]; strain # 176,0.5
same,MIC against Pasteurella multocida,[6]; strain # 177,2
same,MIC against Pasteurella multocida,[6]; strain # 178,4
same,MIC against Pasteurella multocida,[6]; strain # 179,2
same,MIC against Pasteurella multocida,[6]; strain # 180,2
same,MIC against Pasteurella multocida,[6]; strain # 181,2
same,MIC against Pasteurella multocida,[6]; strain # 182,2
same,MIC against Pasteurella multocida,[6]; strain # 183,>8
same,MIC against Pasteurella multocida,[6]; strain # 184,2
same,MIC against Pasteurella multocida,[6]; strain # 185,>8
same,MIC against Pasteurella multocida,[6]; strain # 186,2
same,MIC against Pasteurella multocida,[6]; strain # 187,>8
same,MIC against Pseudomonas aeruginosa,[7]; strain # 58,>8
same,MIC against Pseudomonas aeruginosa,[7]; strain # 59,>8
same,MIC against Pseudomonas aeruginosa,[7]; strain # 60,>8
same,MIC against Pseudomonas aeruginosa,[7]; strain # 61,>8
same,MIC against Pseudomonas aeruginosa,[7]; strain # 62,>8
same,MIC against Pseudomonas aeruginosa,[7]; strain # 63,>8
same,MIC against Pseudomonas aeruginosa,[7]; strain # 64,>8
same,MIC against Pseudomonas aeruginosa,[7]; strain # 65,>8
same,MIC against Pseudomonas aeruginosa,[7]; strain # 66,>8
same,MIC against Pseudomonas aeruginosa,[7]; strain # 67,>8
same,MIC against Staphylococcus pseudintermedius (+ MSRP),[8]; isolate # 128,0.25
same,MIC against Staphylococcus pseudintermedius (+ MSRP),[8]; isolate # 129,0.25
same,MIC against Staphylococcus pseudintermedius (+ MSRP),[8]; isolate # 130,0.25
same,MIC against Staphylococcus pseudintermedius (+ MSRP),[8]; isolate # 131,0.25
same,MIC against Staphylococcus pseudintermedius (+ MSRP),[8]; isolate # 132,0.25
same,MIC against Staphylococcus pseudintermedius (+ MSRP),[8]; isolate # 133,0.25
same,MIC against Staphylococcus pseudintermedius (+ MSRP),[8]; isolate # 134,0.25
same,MIC against Staphylococcus pseudintermedius (+ MSRP),[8]; isolate # 135,0.12
same,MIC against Staphylococcus pseudintermedius (+ MSRP),[8]; isolate # 136,0.25
same,MIC against Staphylococcus pseudintermedius (+ MSRP),[8]; isolate # 137,0.12
same,MIC against Staphylococcus pseudintermedius (+ MSRP),[8]; isolate # 138,>8
same,MIC against Staphylococcus pseudintermedius (+ MSRP),[8]; isolate # 139,0.25
same,MIC against Staphylococcus pseudintermedius (+ MSRP),[8]; isolate # 140,>8
same,MIC against Staphylococcus pseudintermedius (+ MSRP),[8]; isolate # 141,>8
same,MIC against Staphylococcus pseudintermedius (+ MSRP),[8]; isolate # 142,>8
same,MIC against Staphylococcus pseudintermedius (+ MSRP),[8]; isolate # 143,>8
same,MIC against Staphylococcus pseudintermedius (+ MSRP),[8]; isolate # 144,>8
same,MIC against Staphylococcus pseudintermedius (+ MSRP),[8]; isolate # 145,>8
same,MIC against Staphylococcus pseudintermedius (+ MSRP),[8]; isolate # 146,>8
same,MIC against Staphylococcus pseudintermedius (+ MSRP),[8]; isolate # 147,>8
same,MIC against Serratia marcescens,[9]; isolate # 68,>8
same,MIC against Serratia marcescens,[9]; isolate # 69,>8
same,MIC against Serratia marcescens,[9]; isolate # 70,>8
same,MIC against Serratia marcescens,[9]; isolate # 71,>8
same,MIC against Serratia marcescens,[9]; isolate # 72,>8
same,MIC against Serratia marcescens,[9]; isolate # 73,>8
same,MIC against Serratia marcescens,[9]; isolate # 74,>8
same,MIC against Serratia marcescens,[9]; isolate # 75,>8
same,MIC against Serratia marcescens,[9]; isolate # 76,>8
same,MIC against Serratia marcescens,[9]; isolate # 77,>8
same,MIC against Streptococcus canis,[10]; isolate # 198,0.06
same,MIC against Streptococcus canis,[10]; isolate # 199,0.06
same,MIC against Streptococcus canis,[10]; isolate # 200,0.12
same,MIC against Streptococcus canis,[10]; isolate # 201,0.06
same,MIC against Streptococcus canis,[10]; isolate # 202,0.06
same,MIC against Streptococcus canis,[10]; isolate # 203,0.06
same,MIC against Streptococcus canis,[10]; isolate # 204,0.06
same,MIC against Streptococcus canis,[10]; isolate # 205,0.06
same,MIC against Streptococcus canis,[10]; isolate # 206,0.06
same,MIC against Streptococcus canis,[10]; isolate # 207,0.06
same,MIC,[11]; isolate # 148,0.12 µg/mL
same,MIC,[11]; isolate # 149,0.12 µg/mL
same,MIC,[11]; isolate # 150,0.25 µg/mL
same,MIC,[11]; isolate # 151,0.25 µg/mL
same,MIC,[11]; isolate # 152,0.25 µg/mL
same,MIC,[11]; isolate # 153,0.5 µg/mL
same,MIC,[11]; isolate # 154,0.5 µg/mL
same,MIC,[11]; isolate # 155,0.25 µg/mL
same,MIC,[11]; isolate # 156,0.25 µg/mL
same,MIC,[11]; isolate # 157,0.12 µg/mL
same,Known range (MIC),[12],0.25 to 1 µg/mL
same,Known range (MIC),[13],1 to 4 µg/mL
same,Known range (MIC),[14],.03 to .12 µg/mL
